The results in this text go back to patent US5753617A, “Peptide inhibitors of cellular adhesion” (Centocor, Inc., priority 1995, dated 1998).

Where a SMILES comes first, the peptide text is derived from it. Bridges are numbered along the chain shown (N, C = ends). [ ]: non-standard residue; d: D form. Phe(4-Cl) = N[C@@H](Cc1ccc(Cl)cc1)C(=O)O

In this test the target is T1, P-selectin (Homo sapiens, UniProt P16109).
T1 construct: P-selectin is isolated from human platelet lysates; from tissue; host or cells: human platelets (outdated platelet packs from a blood bank)
T1 sequence (P16109 42-830): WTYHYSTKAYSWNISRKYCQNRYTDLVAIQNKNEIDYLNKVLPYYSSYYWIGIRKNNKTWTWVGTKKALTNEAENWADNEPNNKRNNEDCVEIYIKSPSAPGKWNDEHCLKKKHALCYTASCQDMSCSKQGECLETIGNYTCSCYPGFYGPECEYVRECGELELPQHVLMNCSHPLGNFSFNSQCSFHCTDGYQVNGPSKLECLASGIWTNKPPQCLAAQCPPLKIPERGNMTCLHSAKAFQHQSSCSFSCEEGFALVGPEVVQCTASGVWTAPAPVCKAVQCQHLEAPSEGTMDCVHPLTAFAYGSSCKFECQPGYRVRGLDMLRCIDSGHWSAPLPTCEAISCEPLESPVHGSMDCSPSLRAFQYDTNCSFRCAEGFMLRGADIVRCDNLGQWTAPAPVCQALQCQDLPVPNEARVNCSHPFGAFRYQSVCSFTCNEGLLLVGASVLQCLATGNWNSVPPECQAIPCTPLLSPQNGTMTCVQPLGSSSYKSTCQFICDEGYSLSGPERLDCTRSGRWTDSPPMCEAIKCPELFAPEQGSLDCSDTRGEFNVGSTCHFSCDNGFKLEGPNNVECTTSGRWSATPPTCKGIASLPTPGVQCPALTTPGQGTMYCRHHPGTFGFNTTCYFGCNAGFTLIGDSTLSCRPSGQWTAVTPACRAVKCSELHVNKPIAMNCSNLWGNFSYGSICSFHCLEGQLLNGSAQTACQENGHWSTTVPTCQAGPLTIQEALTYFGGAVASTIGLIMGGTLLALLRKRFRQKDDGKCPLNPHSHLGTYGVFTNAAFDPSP
Description: Inhibition of human neutrophil adhesion to purified P-selectin immobilized on plastic wells. The class given is cell-based. Particulars: inhibiting the binding of human neutrophils to P-selectin. The essentials:
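Isolated human neutrophils (2×10^5 per well) in HBSS with Ca2+/Mg2+ and HSA added to wells coated overnight at 4° C with platelet-derived P-selectin (5 micrograms/mL), HSA-blocked; 20 min at 22° C. Nonadherent cells removed by inverted centrifugation at 150 g; adherent cells quantified by myeloperoxidase activity.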
A word on the IC50: it is the concentration that gives 50% inhibition. The low end stands for higher potency, the high end for lower potency. Compound `CC[C@@H](C)[C@@H](NC(=O)[C@@H](CCCCN)NC(=O)[C@H](N)CCCNC(=N)N)C(=O)NCC(=O)N[C@@H]1CSSC[C@H](C(=O)N[C@@H](C(=O)N[C@@H](C(N)=O)C(C)C)[C@H](C)O)NC(=O)[C@@H](Cc2c[nH]c3ccccc23)NC(=O)[C@@H]([C@H](C)CC)NC1=O` [(108)] (H-[dR][dK][dI]G[dC][dI][dW][dC][dT][dV]-NH2; disulfide 5-8) registered an IC50 of 23.8 µM.

Take `CC[C@@H](C)[C@@H](NC(=O)CNC(=O)[C@H]1CSSC[C@@H](N)C(=O)N[C@H](CCCCN)C(=O)N[C@H]([C@H](C)CC)C(=O)N1)C(=O)N[C@H](Cc1c[nH]c2ccccc12)C(=O)N[C@@H](C(=O)N[C@H](Cc1c[nH]c2ccccc12)C(=O)N[C@@H](C(N)=O)C(C)C)[C@H](C)O` [(109)] (H-[dC][dK][dI][dC]G[dI][dW][dT][dW][dV]-NH2; disulfide 1-4): the IC50 came out at 33.9 µM.

For the compound `CC(C)[C@@H](NC(=O)[C@@H](Cc1c[nH]c2ccccc12)NC(=O)[C@H](NC(=O)[C@@H](Cc1c[nH]c2ccccc12)NC(=O)[C@H]1CSSC[C@@H](NC(=O)[C@@H](C)NC(=O)[C@H](N)CCCNC(=N)N)C(=O)NCC(=O)N[C@@H](Cc2ccccc2)C(=O)N1)[C@H](C)O)C(N)=O` [(110)] (H-[dR][dA][dC]GF[dC][dW][dT][dW][dV]-NH2; disulfide 3-6), the IC50 turned out to be 52.9 µM.

`CC(C)[C@@H](NC(=O)[C@@H](Cc1c[nH]c2ccccc12)NC(=O)[C@H](NC(=O)[C@@H](Cc1c[nH]c2ccccc12)NC(=O)[C@H]1CSSC[C@@H](NC(=O)[C@@H](CCC(N)=O)NC(=O)[C@H](N)CCCNC(=N)N)C(=O)NCC(=O)N[C@@H](Cc2ccccc2)C(=O)N1)[C@H](C)O)C(N)=O` [(111)] (H-[dR][dQ][dC]GF[dC][dW][dT][dW][dV]-NH2; disulfide 3-6) came in with an IC50 of 18.4 µM.

In turn, `CC(C)[C@@H](NC(=O)[C@@H](Cc1c[nH]c2ccccc12)NC(=O)[C@H](NC(=O)[C@@H](Cc1c[nH]c2ccccc12)NC(=O)[C@H]1CSSC[C@@H](NC(=O)[C@@H](CCC(=O)O)NC(=O)[C@H](N)CCCNC(=N)N)C(=O)NCC(=O)N[C@@H](Cc2ccccc2)C(=O)N1)[C@H](C)O)C(N)=O` [(112)] (H-[dR][dE][dC]GF[dC][dW][dT][dW][dV]-NH2; disulfide 3-6) displayed an IC50 of 236 µM.

`CC(C)[C@@H](NC(=O)[C@@H](Cc1c[nH]c2ccccc12)NC(=O)[C@H](NC(=O)[C@@H](Cc1c[nH]c2ccccc12)NC(=O)[C@@H]1CSSC[C@H](NC(=O)[C@@H](CCCCN)NC(=O)[C@H](N)CCCNC(=N)N)C(=O)NCC(=O)NCC(=O)N1)[C@H](C)O)C(N)=O` [(113)] (H-[dR][dK]CGGC[dW][dT][dW][dV]-NH2; disulfide 3-6) registered an IC50 of 0.7 µM.

`CC(C)[C@@H](NC(=O)[C@@H](Cc1c[nH]c2ccccc12)NC(=O)[C@H](NC(=O)[C@@H](Cc1c[nH]c2ccccc12)NC(=O)[C@H]1CSSC[C@@H](NC(=O)[C@@H](CCCCN)NC(=O)[C@H](N)CCCNC(=N)N)C(=O)N[C@H](CCC(N)=O)C(=O)N[C@@H](CCC(N)=O)C(=O)N1)[C@H](C)O)C(N)=O` [(114)] (H-[dR][dK][dC][dQ]Q[dC][dW][dT][dW][dV]-NH2; disulfide 3-6) displayed an IC50 of 12.1 µM.

The compound `CC(C)[C@@H](NC(=O)[C@@H](Cc1c[nH]c2ccccc12)NC(=O)[C@H](NC(=O)[C@@H](Cc1c[nH]c2ccccc12)NC(=O)[C@H]1CSSC[C@@H](NC(=O)[C@@H](CCCCN)NC(=O)[C@H](N)CCCNC(=N)N)C(=O)NCC(=O)N[C@@H](Cc2ccc(Cl)cc2)C(=O)N1)[C@H](C)O)C(N)=O` [(115)] (H-[dR][dK][dC]G[Phe(4-Cl)][dC][dW][dT][dW][dV]-NH2; disulfide 3-6) gave a 50% inhibitory concentration (IC50) of 1.5 µM.

The compound `CC(C)[C@@H](NC(=O)[C@@H](Cc1c[nH]c2ccccc12)NC(=O)[C@H](NC(=O)[C@@H](Cc1c[nH]c2ccccc12)NC(=O)[C@H]1CSSC[C@@H](NC(=O)[C@@H](CCCCN)NC(=O)[C@H](N)CCCNC(=N)N)C(=O)NCC(=O)N[C@H](C(C)C)C(=O)N1)[C@H](C)O)C(N)=O` [(116)] (H-[dR][dK][dC]G[dV][dC][dW][dT][dW][dV]-NH2; disulfide 3-6) showed a concentration for half-maximal inhibition (IC50) of 4.6 µM.
